Here are results for 32 compounds from patent US9221834B2 (Merck Sharp & Dohme Corp., priority 2010, dated 2015).

The assay concerns the target T1, recombinant CETP (rCETP) (Homo sapiens, UniProt P11597).
T1 sequence (P11597 18-493): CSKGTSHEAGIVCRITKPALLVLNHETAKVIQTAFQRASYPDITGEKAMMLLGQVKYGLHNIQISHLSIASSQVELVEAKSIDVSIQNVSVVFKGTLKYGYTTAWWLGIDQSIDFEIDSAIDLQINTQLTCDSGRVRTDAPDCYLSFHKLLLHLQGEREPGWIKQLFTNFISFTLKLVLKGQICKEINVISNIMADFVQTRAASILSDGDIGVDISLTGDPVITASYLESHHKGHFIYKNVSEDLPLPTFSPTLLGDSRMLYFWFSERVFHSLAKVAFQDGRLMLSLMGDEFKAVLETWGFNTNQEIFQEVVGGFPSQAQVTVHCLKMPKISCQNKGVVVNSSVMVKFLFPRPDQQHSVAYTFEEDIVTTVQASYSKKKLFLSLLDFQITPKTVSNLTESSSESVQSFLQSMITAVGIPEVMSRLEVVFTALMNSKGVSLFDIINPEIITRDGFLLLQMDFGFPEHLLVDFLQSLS
Put plainly: RTA assay using recombinant CETP (2% RTA). Format: biochemical. The note with it: RTA assay in 2% human serum; read-out: IC50. In a few lines: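 Compounds preincubated 1 h at 37 °C with assay cocktail (CETP buffer: 50 mM Tris pH 7.4, 100 mM NaCl, 1 mM EDTA; human HDL acceptor); transfer started with [3H]cholesteryl oleate- or [3H]triolein-labelled LDL, 60 min at 37 °C. LDL PEG-precipitated; supernatant counted by scintillation, blank-corrected; IC50 from 4-parameter sigmoidal fit of % inhibition vs DMSO control.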

Each structure is given as a SMILES string. pIC50: −log10 of the molar value.

For `COC(=O)c1c(C)c(-c2ccc(OC)c(-c3ccc(N4CCC4)nc3CN3C(=O)O[C@H](c4cc(C(F)(F)F)cc(C(F)(F)F)c4)[C@@H]3C)c2)nn1C` [Example 29], the pIC50 was 7.85.
Regarding `COc1ccc([C@H]2C[C@@H]2C(=O)O)cc1-c1c(C)cc(N2CCC2)nc1CN1C(=O)O[C@H](c2cc(C(F)(F)F)cc(C(F)(F)F)c2)[C@@H]1C` [Example 71], the pIC50 was 8.30.
In the case of `COc1ccc(C(C)(C)CC(=O)O)cc1-c1ccc(N2CCC2)nc1CN1C(=O)O[C@H](c2cc(C(F)(F)F)cc(C(F)(F)F)c2)[C@@H]1C` [Example 77], the pIC50 is 7.82.
As for `COc1c(F)cc(-n2ncc(C(=O)O)c2C(F)(F)F)cc1-c1cnc(N2CC(F)(F)C2)nc1CN1C(=O)O[C@H](c2cc(C(F)(F)F)cc(C(F)(F)F)c2)[C@@H]1C` [Example 187], the negative-log IC50 (pIC50) is 8.40.
Regarding `COc1ccc(CCc2nc[nH]n2)cc1-c1ccc(N2CCC2)nc1CN1C(=O)O[C@H](c2cc(C(F)(F)F)cc(C(F)(F)F)c2)[C@@H]1C` [Example 270, (4S,5R)-3-[(6-azetidin-1-yl-3-{2-methoxy-5-[2-(1H-1,2,4-triazol-3-yl)ethyl]phenyl}pyridin-2-yl)methyl]-5-[3,5-bis(trifluoromethyl)phenyl]-4-methyl-1,3-oxazolidin-2-one], the pIC50 is 8.15.
Consider `CCOC(=O)[C@@H]1C[C@H]1c1ccc(OC)c(-c2ccc(N3CCC3)nc2CN2C(=O)O[C@H](c3cccc(C(F)(F)F)c3)[C@@H]2C)c1` [Example 207], for which the pIC50 was 7.36.
The value for `COc1ccc([C@H]2CC[C@H](C(=O)O)CC2)cc1-c1ccc(N2CCC2)nc1CN1C(=O)O[C@H](c2cccc(C)c2)[C@@H]1C` [Example 225] was 7.18.
With `COC(=O)CCc1ccc(OC)c(-c2ccc(N3CCCC3)nc2CN2C(=O)O[C@H](c3cc(C(F)(F)F)cc(C(F)(F)F)c3)[C@@H]2C)c1` [Example 2], the pIC50 was 7.48.
On to `C[C@H]1[C@@H](c2cc(F)cc(C(F)(F)F)c2)OC(=O)N1Cc1nc(N2CC(F)(F)C2)ncc1-c1cc([C@H]2CC[C@H](C(=O)O)CC2)ccc1Cl` [Example 291], for which the pIC50 is 7.31.
On to `COC(=O)CCc1ccc(OC2CC2)c(-c2c(C)cc(N3CCC3)nc2CN2C(=O)O[C@H](c3cc(C(F)(F)F)cc(C(F)(F)F)c3)[C@@H]2C)c1` [Example 215], for which the pIC50 is 8.22.
The value for `COc1ccc([C@@H]2C[C@H]2C(=O)O)cc1-c1ccc(N2CCC2)nc1CN1C(=O)O[C@H](c2cc(C(F)(F)F)cc(C(F)(F)F)c2)[C@@H]1C` [Example 72] was 8.15; that for `COc1ccc(C2C[C@H]2C(=O)O)cc1-c1cnc(N2CC(F)(F)C2)nc1CN1C(=O)O[C@H](c2cc(C(F)(F)F)cc(C(F)(F)F)c2)[C@@H]1C` (some centres unmarked) [Example 158] was 7.68; that for `COc1cc2c(cc1-c1ccc(N3CCC3)nc1CN1C(=O)O[C@H](c3cccc(C(F)(F)F)c3)[C@@H]1C)[C@H](CC(=O)O)CC2` [Example 229] was 6.79.
With `COc1ccc(-c2ccc(C(=O)O)o2)cc1-c1ccc(N2CCC2)nc1CN1C(=O)O[C@H](c2cc(C(F)(F)F)cc(C(F)(F)F)c2)[C@@H]1C` [Example 112], the pIC50 is 6.74.
As for `COc1cc2c(cc1-c1cnc(N3CCC3)nc1CN1C(=O)O[C@H](c3cc(C(F)(F)F)cc(C(F)(F)F)c3)[C@@H]1C)[C@H](CC(=O)O)CC2` [Example 155], the pIC50 is 7.40.
In the case of `COc1ccc([C@H]2CC[C@H](C(=O)O)CC2)cc1-c1ccc(N2CCC2)nc1CN1C(=O)O[C@H](c2cc(F)c(F)c(F)c2)[C@@H]1C` [Example 101], the pIC50 is 7.43.
`COC(=O)[C@H]1CC[C@@H](c2ccc(OC)c(-c3ccc(N4CCC4)nc3CN3C(=O)O[C@H](c4cc(C(F)(F)F)cc(C(F)(F)F)c4)[C@@H]3C)c2)C1` (single isomer, unassigned) [Example 218]: the pIC50 was 7.92.
In the case of `COc1ccc([C@H]2C[C@@H]2C(=O)O)cc1-c1ccc(N2CCC2)nc1CN1C(=O)O[C@H](c2cc(C(F)(F)F)cc(C(F)(F)F)c2)[C@@H]1C` [Example 75], the pIC50 is 8.05.
As for `CCOC(=O)CCc1ccc(OC)c(-c2ccc(N3CCC3)nc2CN2C(=O)O[C@H](c3cc(C)cc(C)c3)[C@@H]2C)c1` [Example 198], the pIC50 was 7.30.
For the compound `COc1ccc([C@H]2C[C@@H](CC(=O)O)C2)cc1-c1ccc(N2CCC2)nc1CN1C(=O)O[C@H](c2cc(C(F)(F)F)cc(C(F)(F)F)c2)[C@@H]1C` [Example 91], the pIC50 was 8.00.
For `COc1ccc([C@H]2C[C@@H](C(=O)OC)C2)cc1-c1ccc(N2CCC2)nc1CN1C(=O)O[C@H](c2cc(C(F)(F)F)cc(C(F)(F)F)c2)[C@@H]1C` [Example 23], the pIC50 was 7.74.
As for `COc1ccc(Cc2ncc[nH]2)cc1-c1ccc(N2CCC2)nc1CN1C(=O)O[C@H](c2cc(C(F)(F)F)cc(C(F)(F)F)c2)[C@@H]1C` [Example 267, (4S,5R)-3-({6-azetidin-1-yl-3-[5-(1H-imidazol-2-ylmethyl)-2-methoxyphenyl]pyridin-2-yl}methyl)-5-[3,5-bis(trifluoromethyl)phenyl]-4-methyl-1,3-oxazolidin-2-one], the pIC50 is 7.17.
The value for `COC(=O)c1ccc(-c2ccc(OC)c(-c3ccc(N4CCC4)nc3CN3C(=O)O[C@H](c4cc(C)cc(C)c4)[C@@H]3C)c2)c(C)c1` [Example 211] was 7.64; that for `COC(=O)c1ccc(-c2ccc(OC)c(-c3ccc(N4CCC4)nc3CN3C(=O)O[C@H](c4cccc(C(F)(F)F)c4)[C@@H]3C)c2)c(C)c1` [Example 210] was 7.66; that for `COc1ccc(-c2ccc(C(=O)O)nc2)cc1-c1ccc(N2CCC2)nc1CN1C(=O)O[C@H](c2cc(C(F)(F)F)cc(C(F)(F)F)c2)[C@@H]1C` [Example 120] was 7.48.
`COc1ccc([C@H]2CC[C@H](C(=O)O)CC2)cc1-c1cnc(N2CCC2)nc1CN1C(=O)O[C@H](c2cccc(C(F)(F)F)c2)[C@@H]1C` [Example 272]: the pIC50 was 6.78.
In the case of `COC(=O)c1ccc(-c2cc(-c3cnc(N4CC(OC)C4)nc3CN3C(=O)O[C@H](c4cc(C(F)(F)F)cc(C(F)(F)F)c4)[C@@H]3C)c(OC)cc2F)c(C)c1` [Example 136], the pIC50 was 7.26.
`CCOC(=O)C[C@@H]1CCc2cc(OC)c(-c3cnc(N4CC(F)(F)C4)nc3CN3C(=O)O[C@H](c4cc(C(F)(F)F)cc(C(F)(F)F)c4)[C@@H]3C)cc21` [Example 130]: the pIC50 was 7.49.
For the compound `CCc1ccc(-c2ccc(C(=O)O)cc2C)cc1-c1cnc(N2CC(OC)C2)nc1CN1C(=O)O[C@H](c2cc(C(F)(F)F)cc(C(F)(F)F)c2)[C@@H]1C` [Example 166], the pIC50 was 7.34.
With `COc1cc(F)c([C@H]2C[C@@H](C(=O)O)C2)cc1-c1ccc(N2CCC2)nc1CN1C(=O)O[C@H](c2cc(C(F)(F)F)cc(C(F)(F)F)c2)[C@@H]1C` [Example 103], the pIC50 was 7.51.
Take `COc1ccc([C@H]2CC[C@H](C(N)=O)CC2)cc1-c1ccc(N2CCC2)nc1CN1C(=O)O[C@H](c2cc(C)cc(C)c2)[C@@H]1C` [Example 253, trans-4-[3-(6-azetidin-1-yl-2-{[(4S,5R)-5-(3,5-dimethylphenyl)-4-methyl-2-oxo-1,3-oxazolidin-3-yl]methyl}pyridin-3-yl)-4-methoxyphenyl]cyclohexanecarboxamide]: the pIC50 was 7.64.
As for `COC(=O)[C@H]1CC[C@H](c2ccc(Cl)c(-c3cnc(N4CC(OC)C4)nc3CN3C(=O)O[C@H](c4cc(C(F)(F)F)cc(C(F)(F)F)c4)[C@@H]3C)c2)CC1` [Example 138], the pIC50 is 5.69.
